Reference: patent publication US20250195521A1 (Revolution Medicines, Inc., priority 2020, published 2025)

How the values were obtained:
[1] = test system: SW1573; settings: Canon et al. 2019; cited from earlier work
[2] = test system: SW1573; settings: cited from earlier work
[3] = test system: SW1573 cells; settings: cited from earlier work
[4] = test system: PAN02 tumors (SHP2 G503V); assay: PAN02 syngeneic tumor model (Example 5); format: in vivo, mouse; settings: 100 mg/kg po qd and 250 mg/kg po qd
Experimental: (§1) Mice were implanted with (A) PAN02 tumor cells (1e6 cells/mouse) or (B) LN229 tumor cells in 50% matrigel (10e6 cells/mouse) subcutaneously in the flank. Once tumors reached an average size of ˜200 mm^3 mice were randomized to treatment groups and administration of test article or vehicle (2% HPMC E-50, 0.5% Tween-80 in 50 mM Sodium Citrate Buffer, pH 4.0). Body weight and tumor volume (using digital calipers) were measured twice a week until study endpoints. Compounds were administered by oral gavage daily.

[5] = test system: PAN02 tumors (SHP2 G503V); assay: PAN02 syngeneic tumor model (Example 2); format: in vivo, mouse
[6] = test system: LN229 tumors (SHP2 A72S); assay: LN229 CDX xenograft model (Example 5); format: in vivo, mouse; settings: 100 mg/kg po qd
Experimental: as §1

[7] = test system: SHP2 variants expressed in T-REx-293 (HEK-293) cells; assay: pERK AlphaLISA in isogenic T-REx-293-SHP2 cells, EGF stimulated; format: cell-based; settings: SHP2 G503V
Experimental: Assay data was plotted and EC50 values were determined using four-parameter concentration-response model in GraphPad Prism 7. Data provided are mean+/−standard deviation of duplicate values from representative experiments.

[8] = test system: PAN02 cells (SHP2 G503V); assay: CellTiter-Glo viability in PAN02 cells; format: cell-based, mouse; settings: PAN02, up to highest test concentration of 10 μM
Text: (§2) In this example, two mouse tumor cell lines, KLN205 (lung squamous cell carcinoma) and PAN02 (pancreatic cancer), were characterized.
(§3) See FIGS. 5A through 5D, which are graphs depicting the pERK AlphaLISA® assay.

[9] = test system: LN229.E76K tumors (PTPN11 E76K); assay: LN229.E76K glioblastoma xenograft (Example 8); format: in vivo, mouse; settings: PO daily; Compound SOS1-(C) 50 mg/kg, RMC-4550 30 mg/kg, cobimetinib […]
Experimental: 6-7 week athymic nude mice were implanted with LN229.E76K in 50% matirgel (10×10^6 cells/mouse) subcutaneously in the flank. Once tumors reached an average size of 200 mm^3, mice were randomized into treatment groups to start the administration of test articles or control. All treatments were administered daily by oral gavage. Body weight and tumor volume (using calipers) was measured twice weekly until study endpoint.

[10] = test system: KLN205 cells (SHP2 G503V); assay: pERK AlphaLISA in KLN205 cells; format: cell-based, mouse; settings: KLN205, up to highest test concentration of 10 μM
Text: as §2, §3

[11] = test system: KLN205 tumors (SHP2 G503V); assay: KLN205 syngeneic tumor model (Example 2); format: in vivo, mouse; settings: KLN205, DBA/2 mice; RMC-4550 30 mg/kg daily oral
[12] = test system: PAN02 cells (SHP2 G503V); assay: pERK AlphaLISA in PAN02 cells; format: cell-based, mouse; settings: PAN02, up to highest test concentration of 10 μM
Text: as §2, §3

[13] = test system: KLN205 cells (SHP2 G503V); assay: CellTiter-Glo viability in KLN205 cells; format: cell-based, mouse; settings: KLN205, up to highest test concentration of 10 μM
Text: as §2, §3

[14] = test system: Capan-2 tumors (KRAS G12V/wt); assay: Capan-2 KRAS G12V/wt xenograft efficacy; format: in vivo, mouse; settings: RMC-4550 20 mg/kg po every other day; Compound A 100 mg/kg po bid; Day 40
Experimental: Capan-2 cells were implanted in 50% Matrigel. Animals were randomized and treatment was initiated at average tumor volume of ˜180 mm3. […] Ns=no significance; *** p<0.001 by one-way ANOVA.
Once tumors reached an average size of ˜180 mm3, mice were randomized to treatment groups to start the administration of test articles or vehicle. […] Body weight and tumor volume (using calipers) was measured twice weekly until study endpoints.

[15] = test system: PAN02 tumors (PTPN11 G503V); assay: PAN02 PTPN11 G503V syngeneic model (Example 12); format: in vivo, mouse; settings: PO daily; Compound SOS1-(C) 100 mg/kg for 7 days then 50 mg/kg, abemaciclib 30 mg/kg
Experimental: (§4) The combinatorial effects of Compound SOS1-(C) with Abemaciclib on tumor cell growth in vivo were evaluated in the murine pancreatic ductal adenocarcinoma PAN02 PTPN11G503V syngeneic model using female C57BL/6J mice (6-7 weeks old). Mice were implanted with PAN02 tumor cells in PBS (5 ×10^6cells/mouse) subcutaneously in the flank. Once tumors reached an average size of ˜130 mm3, mice were randomized to treatment groups to start the administration of test articles or control. All test articles were administered by oral gavage daily. Body weight and tumor volume (using calipers) was measured twice weekly until study endpoints.

[16] = test system: NCI-H358 KRASG12C xenograft; assay: In vivo NSCLC K-Ras G12C xenograft model; design: species or system BALB/c nude mice; settings: single agent
Experimental: (§5) Mice were implanted with NCI-H358 tumor cells in 50% Matrigel (5×10^6 cells/mouse) subcutaneously in the flank. At the indicated tumor volume (dotted line, FIG. 2A), mice were randomized to treatment groups to start the administration of test articles or vehicle. […] Body weight and tumor volume (using calipers) was measured twice weekly until study endpoints.
Mice were implanted with NCI-H358 tumor cells in 50% Matrigel (5×10^6 cells/mouse) subcutaneously in the flank. At indicated tumor volume (dotted line, FIG. 3A), mice were randomized to treatment groups to start the administration of test articles or vehicle. […] Cobimetinib was administered by daily oral gavage at 2.5 mg/kg. The combination of Compound B and cobimetinib at their respective single-agent dose and regimen was also tested. Body weight and tumor volume (using calipers) was measured twice weekly until study endpoints.
as §5, with “At” for “At the”, “4A),” for “2A),”

[17] = test system: LN229.E76K tumors (PTPN11 E76K); assay: LN229.E76K glioblastoma xenograft (Example 11); format: in vivo, mouse; settings: PO daily; Compound SOS1-(B) 50 mg/kg, cobimetinib 2.5, and combination
Experimental: The combinatorial effects of Compound SOS1-(B) with cobimetinib on tumor cell growth in vivo were evaluated in a human engineered model of PTPN11-mutant glioblastoma, LN229.E76K xenograft model using female athymic nude mice (6-7 weeks old). Mice were implanted with LN229.E76K tumor cells in 50% Matrigel (10×10^6cells/mouse) subcutaneously in the flank. Once tumors reached an average size of ˜200 mm3, mice were randomized to treatment groups to start the administration of test articles or control. All test articles were administered by oral gavage daily. Body weight and tumor volume (using calipers) was measured twice weekly until study endpoints.

[18] = test system: PAN02 tumors (PTPN11 G503V); assay: PAN02 PTPN11 G503V syngeneic model (Example 10); format: in vivo, mouse; settings: PO daily
Experimental: as §4, with “cobimetinib” for “Abemaciclib”, “mm^3,” for “mm3,”

[19] = test system: NCI-H358 cells; assay: 72-hour proliferation assay using CellTiter-Glo, NCI-H358; format: cell-based, human; settings: read-out: EC50, 72-hour proliferation assay
Experimental: The plate was placed in the Incucyte S3 live cell analysis system (37° C., 5% CO2) and confluence was measured by recording images at 6-hour intervals for a maximum of 40 days, or until wells reached maximal confluence. Media and drug were replaced at 3-4 day intervals. Data are plotted as % confluence over the time course of the experiment for each single agent and respective combination (FIG. 5).

In the case of `C=CC(=O)N1CCN(c2nc(=O)n(-c3c(C)ccnc3C(C)C)c3nc(-c4c(O)cccc4F)c(F)cc23)[C@@H](C)C1` [AMG510, sotorasib], the “sensitivity of SW1573” value [1] is listed as “insensitive”, the “sensitivity of cell line” value [2] is listed as “insensitive” and the “sensitivity of cell line” value [3] is listed as “insensitive”.

For `COC1(C(=O)N2Cc3nc(Cl)nc(C[C@H](C)c4cc(N)cc(C(F)(F)F)c4)c3C2)CCOCC1` [Compound SOS1-(A)], the “inhibition of tumor growth in vivo” value [4] was “near complete inhibition of tumor growth”, the “inhibition of tumor growth in vivo” value ([5]; PAN02, immunocompetent mice, Compound SOS1-(A) 100 mg/kg daily oral) was “substantially higher levels of tumor growth inhibition” and the “inhibition of tumor growth in vivo” value [6] was “near complete inhibition of tumor growth”.

In the case of `Cc1nc(N2CCC3(CC2)CO[C@@H](C)[C@H]3N)c(CO)nc1-c1cccc(Cl)c1Cl` [RMC-4550], the tumor growth inhibition ([5]; PAN02, C57/B6 mice, RMC-4550 40 mg/kg every 2 days oral) is reported as “less than 50%”, the IC50 [7] is reported as > 30000 nM and the “inhibition of cell growth” value [8] is reported as “low or moderate inhibition”. For the same compound, the “tumor growth inhibition (TGI)” value [9] was 7%, the “inhibition of pERK” value [10] was “low or moderate inhibition” and the tumor growth inhibition [11] was “less than 50%”. The “inhibition of pERK” value [12] was “low or moderate inhibition”, the “inhibition of cell growth” value [13] was “low or moderate inhibition” and the TGI [14] was 39%.

In the case of `CCN1CCN(Cc2ccc(Nc3ncc(F)c(-c4cc(F)c5nc(C)n(C(C)C)c5c4)n3)nc2)CC1` [abemaciclib], the “tumor growth inhibition (TGI)” value [15] is reported as 52%.

For `O=C(c1ccc(F)c(F)c1Nc1ccc(I)cc1F)N1CC(O)([C@@H]2CCCCN2)C1` [cobimetinib], the tumor growth response ([16]; A 100 mg/kg po daily 28 days, B 50 mg/kg iv twice weekly, cobimetinib […] po daily, C 60 mg/kg iv once weekly) was “tumor growth inhibition”, the “mice with tumor regression (of 10)” value ([16]; regression = greater than 10% reduction of tumor volume, SHP2 inhibitor 30 mg/kg po daily) was “no tumor regressions” and the “tumor growth inhibition (TGI)” value [17] was 62%. The “tumor growth inhibition (TGI)” value ([18]; Compound SOS1-(C) 100 mg/kg, cobimetinib […]) was 38%, the “tumor growth inhibition (TGI)” value ([18]; cobimetinib 5 mg/kg) was 49% and the “tumor growth inhibition (TGI)” value [9] was 41%.

Work on `CC(=O)Nc1cccc(-n2c(=O)n(C3CC3)c(=O)c3c(Nc4ccc(I)cc4F)n(C)c(=O)c(C)c32)c1` [trametinib] yielded an EC50 [19] of 10 nM.
